From US12351574B2, “Selective ligands for modulation of GIRK channels” (Northeastern University, priority 2018, dated 2025)

Molecular target: T1, GIRK1-S65A with GIRK4 (Homo sapiens, UniProt P48544+P48549, S65A)
T1 construct: expressed in transfected cells; host or cells: HEK293-T cells
T1 sequence (P48549 1-501 S65A): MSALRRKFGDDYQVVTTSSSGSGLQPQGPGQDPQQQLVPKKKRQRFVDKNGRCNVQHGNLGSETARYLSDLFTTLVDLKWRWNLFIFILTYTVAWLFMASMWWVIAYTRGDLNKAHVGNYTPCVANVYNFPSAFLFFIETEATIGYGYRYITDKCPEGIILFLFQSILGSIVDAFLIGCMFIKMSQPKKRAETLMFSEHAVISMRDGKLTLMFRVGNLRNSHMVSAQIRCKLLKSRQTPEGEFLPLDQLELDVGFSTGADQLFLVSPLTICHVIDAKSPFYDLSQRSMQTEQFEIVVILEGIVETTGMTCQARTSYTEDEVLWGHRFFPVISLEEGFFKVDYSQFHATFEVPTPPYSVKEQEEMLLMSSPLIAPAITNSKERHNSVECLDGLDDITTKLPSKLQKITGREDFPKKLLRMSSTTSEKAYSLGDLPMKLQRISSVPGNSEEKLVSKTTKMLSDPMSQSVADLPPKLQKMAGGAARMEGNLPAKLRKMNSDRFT
T1 sequence (P48544 1-419): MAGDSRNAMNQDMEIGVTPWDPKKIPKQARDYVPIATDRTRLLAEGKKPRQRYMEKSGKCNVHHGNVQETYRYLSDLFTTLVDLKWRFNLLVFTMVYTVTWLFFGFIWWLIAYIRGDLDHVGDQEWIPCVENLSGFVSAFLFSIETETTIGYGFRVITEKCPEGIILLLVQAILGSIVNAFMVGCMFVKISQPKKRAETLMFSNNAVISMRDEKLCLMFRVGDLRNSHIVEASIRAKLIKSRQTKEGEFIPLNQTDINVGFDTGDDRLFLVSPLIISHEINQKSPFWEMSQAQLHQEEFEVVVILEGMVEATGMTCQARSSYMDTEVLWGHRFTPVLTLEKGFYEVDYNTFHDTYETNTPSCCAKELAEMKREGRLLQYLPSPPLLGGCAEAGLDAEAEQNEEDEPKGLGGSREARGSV
Assay: 5-ptaseOCRL current inhibition, GIRK1/4 channels containing GIRK1-S65A subunits
Format: cell-based
Source text: To identify changes in specific channel residue interactions with PIP2 upon ligand binding, the inventors carried out Principal Component Analysis (PCA) in the presence and absence of ML297 and GAT1508. The PCA analysis implicated changes in the slide (or interfacial) helix interactions with PIP2 upon ligand binding. Polar interactions could be formed between GIRK2^FD(Y76) and GIRK4^FD(Y71) with the P(4,5) of PIP2 when ML297 was bound to the same subunit (FIG. 39 top, FIG. 40). In contrast, when GAT1508 was bound this interaction was retained by GIRK2^FD but not GIRK4^FD (FIG. 39 bottom, FIG. 40). The corresponding GIRK1(S65) residue (FIG. 41, highlighted with vertical rectangle) could be serving the same role in stabilizing the phosphoinositol headgroup for interactions with non-ligand binding subunits. As polar residues, both Ser and Tyr could form H-bond interactions with PIP2. […]
Patch-clamp recording: Whole-cell currents were recorded with an Axopatch 200B amplifier (Molecular Devices) controlled via a USB-interface (National Instruments) using WinWCP software (University of Strathclyde). […] The barium-sensitive component of the current, observed when cells were perfused with the high-K^+ buffer, was analyzed and was determined by perfusing 5 mM BaCl2 in the high-K^+ buffer at the end of each experiment. […]

| Compound | protection of current from 5-ptaseOCRL (in words) |
| --- | --- |
| Cc1cc(NC(=O)Nc2ccc(Br)s2)n(-c2ccccc2)n1 [GAT1508, 1-(5-bromothiophen-2-yl)-3-(3-methyl-1-phenyl-1H-pyrazol-5-yl)urea] | not protected |
| Cc1cc(NC(=O)Nc2ccc(F)c(F)c2)n(-c2ccccc2)n1 [ML297, reference compound] | not protected |
